system: SRE.L-firefly luciferase reporter (Rho/MKL1 pathway) in PC-3 prostate cancer cells; assay: SRE.L-luciferase reporter assay; assay type: cell-based; conditions: 19 h, PC-3 cells transfected with Gα12Q231L, SRE.L and pRL-TK reporters; compound 19 hrs
Method: Seed PC-3 prostate cancer cells (40,000 cells/well) were grown in 96-well plates in 10% FBS containing DMEM medium. Cells were transiently transfected with the Ga12QL activator of the Rho/MKL1 pathway, along with the SRE.L-firefly luciferase reporter construct for 6 hours. Additionally, cells were co-transfected with the TK-Renilla luciferase reporter as an indicator of non-specific compound effects. Various concentrations of the compounds disclosed herein were added to the 96-well plates. Plates were incubated for 19 hours at 37° C. and 5% C02 in 0.5% FBS containing DMEM medium. Cells were lysed with IX Passive Lysis Buffer (Promega). Plates were incubated for 30 minutes at room temperature. Luminescence counts were read with a Victor2 (Perkin-Elmer) plate reader.
One hour prior to cell lysis for the dual luciferase assay, 10 μl: per well of WST1 reagent (Roche) was added to the 96-well plates. Plates were incubated for 1 hour at 37° C. and 5% CO2. Cell viability was measured by WST1 absorbance at 450 nm with a Victor2 (Perkin-Elmer) plate reader.
Biological activity of the compounds disclosed herein were assessed in the SRE.L luciferase reporter assay. PC-3 prostate cancer cells were co-transfected with 2 ng of the Gα12Q231L expression plasmid along with 50 ng of the SRE.L and 7 ng of the pRL-TK luciferase reporter plasmids, as described in the Materials and Methods section. Cells were treated with 0 (vehicle, DMSO alone), 1, 3, 10, 30, and 100 μM of a compound disclosed herein for 19 hrs after transfection before lysis. Luminescence was determined as described in the Materials and Methods section. Just before cell lysis, the viability of the cells was measured using the WST-1 cell proliferation reagent as described in the Materials and Methods section. Data are expressed as percentage of inhibition (DMSO alone=0%). The experiments were performed three separate times to achieve n=3 in triplicate.

Compared with `CC(c1ccc(-n2cccn2)cc1)N1CCCC(C(=O)Nc2ccc(Cl)cc2)C1` (single isomer, unassigned) [Example E-102, 1-(1-(4-(1H-pyrazol-1-yl)phenyl)ethyl)-N-(4-chlorophenyl)piperidine-3-carboxamide], `O=C(Nc1ccc(Cl)cc1)C1CCCN(C(=O)c2cccc(-c3ccco3)c2)C1` (centres unmarked) [Example E-002, N-(4-chlorophenyl)-1-(3-(furan-2-yl)benzoyl)piperidine-3-carboxamide] is 5.1-fold higher in IC50: 1.4 µM for the first, 7.1 µM for the second.

`O=C(c1cccc(-c2ccco2)c1)N1CCCC(F)(C(=O)Nc2ccc(Cl)cc2)C1` (centres unmarked) [Example E-001, N-(4-chlorophenyl)-3-fluoro-1-(3-(furan-2-yl)benzoyl)piperidine-3-carboxamide] and `CN1CCN(C(=O)c2cccc(-c3ccco3)c2)CC1C(=O)Nc1ccc(Cl)cc1` (centres unmarked) [Example E-018, N-(4-chlorophenyl)-4-(3-(furan-2-yl)benzoyl)-1-methylpiperazine-2-carboxamide] are within 1.5-fold of each other in IC50: 7.3 µM for the first, 8.7 µM for the second.

First: O=C(Nc1ccc(Cl)cc1)C1CCCN(C(=O)c2cccc(-c3ccc(Cl)o3)c2)C1 (centres unmarked) [Example E-003, 1-(3-(5-chlorofuran-2-yl)benzoyl)-N-(4-chlorophenyl)piperidine-3-carboxamide]
Second: CC(=O)N1CCN(C(=O)c2cccc(-c3ccco3)c2)CC1C(=O)Nc1ccc(Cl)cc1 (centres unmarked) [Example E-008, 1-acetyl-N-(4-chlorophenyl)-4-(3-(furan-2-yl)benzoyl)piperazine-2-carboxamide]
The IC50 of the first is 4.2-fold lower: 12 µM for the first, 50 µM for the second.

Going from `O=C(Nc1ccc(Cl)cc1)C1CN(C(=O)c2cccc(-c3ccco3)c2)CCN1C(=O)OCc1ccccc1` (centres unmarked) [Example E-004, benzyl 2-((4-chlorophenyl)carbamoyl)-4-(3-(furan-2-yl)benzoyl)piperazine-1-carboxylate] to `O=C(Nc1ccc(Cl)cc1)C1CN(C(=O)c2cccc(-c3ccco3)c2)CCN1C(=O)Oc1ccccc1` (centres unmarked) [Example E-015, phenyl 2((4-chlorophenyl)carbamoyl)-4-(3-(furan-2-yl)benzoyl)piperazine-1-carboxylate], the IC50 rises from 1.8 µM to 26 µM (14-fold).

`CCC(=O)N1CCN(C(=O)c2cccc(-c3ccco3)c2)CC1C(=O)Nc1ccc(Cl)cc1` (centres unmarked) [Example E-005, N-(4-chlorophenyl)-4-(3-(furan-2-yl)benzoyl)-1-propionylpiperazine-2-carboxamide] and `CCOC(=O)N1CCN(C(=O)c2cccc(-c3ccco3)c2)CC1C(=O)Nc1ccc(Cl)cc1` (centres unmarked) [Example E-014, ethyl 2((4-chlorophenyl)carbamoyl)-4-(3-(furan-2-yl)benzoyl)piperazine-1-carboxylate] are within 1.5-fold of each other in IC50: 19 µM for the first, 16 µM for the second.

Compared with `CC(C)C(=O)N1CCN(C(=O)c2cccc(-c3ccco3)c2)CC1C(=O)Nc1ccc(Cl)cc1` (centres unmarked) [Example E-006, N-(4-chlorophen)-4-(3-(furan-2-yl)benzoyl)-1-isobutyrylpiperazine-2-carboxamide], `CC(C)NC(=O)N1CCN(C(=O)c2cccc(-c3ccco3)c2)CC1C(=O)Nc1ccc(Cl)cc1` (centres unmarked) [Example E-010, N2-(4-chlorophenyl)-4-(3-(furan-2-yl)benzoyl)-N1-isopropylpiperazine-1,2-dicarboxamide] is 2-fold higher in IC50: 12 µM for the first, 24 µM for the second.

`COc1ccc(C(=O)N2CCN(C(=O)c3cccc(-c4ccco4)c3)CC2C(=O)Nc2ccc(Cl)cc2)cc1` (centres unmarked) [Example E-007, N-(4-chlorophenyl)-4-(3-(furan-2-yl)benzoyl)-1-(4-methoxybenzoyl)piperazine-2-carboxamide] and `O=C(Nc1ccc(Cl)cc1)C1CN(C(=O)c2cccc(-c3ccco3)c2)CCN1C(=O)Nc1ccccc1` (centres unmarked) [Example E-009, N2-(4-chlorophenyl)-4-(3-(furan-2-yl)benzoyl)-N1-phenylpiperazine-1,2-dicarboxamide] are within 1.5-fold of each other in IC50: 15 µM for the first, 18 µM for the second.

Going from `O=C(Nc1ccc(Cl)cc1)C1CN(C(=O)c2cccc(-c3ccco3)c2)CCN1C(=O)NC1CCCC1` (centres unmarked) [Example E-011, N2-(4-chlorophenyl)-N1-cyclopentyl-4-(3-(furan-2-yl)benzoyl)piperazine-1,2-dicarboxamide] to `C=CCNC(=O)N1CCN(C(=O)c2cccc(-c3ccco3)c2)CC1C(=O)Nc1ccc(Cl)cc1` (centres unmarked) [Example E-012, N1-allyl-N2-(4-chlorophenyl)-4-(3-(furan-2-yl)benzoyl)piperazine-1,2-dicarboxamide], the IC50 rises from 14 µM to 25 µM (1.8-fold).

`CCCOC(=O)N1CCN(C(=O)c2cccc(-c3ccco3)c2)CC1C(=O)Nc1ccc(Cl)cc1` (centres unmarked) [Example E-013, propyl 2((4-chlorophenyl)carbamoyl)-4-(3-(furan-2-yl)benzoyl)piperazine-1-carboxylate] and `COCCOC(=O)N1CCN(C(=O)c2cccc(-c3ccco3)c2)CC1C(=O)Nc1ccc(Cl)cc1` (centres unmarked) [Example E-016, 2-methoxyethyl 2((4-chlorophenyl)carbamoyl)-4-(3-(furan-2-yl)benzoyl)piperazine-1-carboxylate] are within 1.5-fold of each other in IC50: 18 µM for the first, 16 µM for the second.

For `O=C(Nc1ccc(Cl)cc1)C1CN(C(=O)c2cccc(-c3ccco3)c2)CCN1Cc1ccccc1` (centres unmarked) [Example E-017, 1-benzyl-N-(4-chlorophenyl)-4-(3-(furan-2-yl)benzoyl)piperazine-2-carboxamide], the IC50 was 16 µM.

same assay, conditions: PC-3 cells transfected with Gα12Q231L, SRE.L and pRL-TK reporters; compound 19 hrs

First: COC1CC(C(=O)Nc2ccc(Cl)cc2)CN(C(=O)c2cccc(-c3ccco3)c2)C1 (single isomer, unassigned) [Example E-045, N-(4-chlorophenyl)-1-(3-(furan-2-yl)benzoyl)-5-methoxypiperidine-3-carboxamide]
Second: CN(Cc1ccccc1)C1CC(C(=O)Nc2ccc(Cl)cc2)CN(C(=O)c2cccc(-c3ccco3)c2)C1 (single isomer, unassigned) [Example E-060, 5-(benzyl(methyl)amino)-N-(4-chlorophenyl)-1-(3-(furan-2-yl)benzoyl)piperidine-3-carboxamide]
The IC50 of the first is 19-fold lower: 0.93 µM for the first, 18 µM for the second. The first is the more potent here.

`COC1CC(C(=O)Nc2ccc(Cl)cc2)CN(C(=O)c2cccc(-c3ccco3)c2)C1` (single isomer, unassigned) [Example E-046, N-(4-chlorophenyl)-1-(3-(furan-2-yl)benzoyl)-5-methoxypiperidine-3-carboxamide] and `CN(Cc1ccccc1)C1CC(C(=O)Nc2ccc(Cl)cc2)CN(C(=O)c2cccc(-c3ccco3)c2)C1` (single isomer, unassigned) [Example E-061, 5-(benzyl(methyl)amino)-N-(4-chlorophenyl)-1-(3-(furan-2-yl)benzoyl)piperidine-3-carboxamide] are within 1.5-fold of each other in IC50: 2.3 µM for the first, 1.9 µM for the second.

Compared with `O=C(NC1CC(C(=O)Nc2ccc(Cl)cc2)CN(C(=O)c2cccc(-c3ccco3)c2)C1)c1ccccc1` (single isomer, unassigned) [Example E-054, 5-benzamido-N-(4-chlorophenyl)-1-(3-(furan-2-yl)benzoyl) piperidine-3-carboxamide], `CC(c1ccc(-n2cccn2)cc1)N1CCCC(C(=O)Nc2ccc(Cl)cc2)C1` (single isomer, unassigned) [Example E-103, 1-(1-(4-(1H-pyrazol-1-yl)phenyl)ethyl)-N-(4-chlorophenyl)piperidine-3-carboxamide] is 14-fold lower in IC50: 30 µM for the first, 2.2 µM for the second. The second is the more potent here.

`O=C(NC1CC(C(=O)Nc2ccc(Cl)cc2)CN(C(=O)c2cccc(-c3ccco3)c2)C1)c1ccccc1` (single isomer, unassigned) [Example E-055, 5-benzamido-N-(4-chlorophenyl)-1-(3-(furan-2-yl)benzoyl) piperidine-3-carboxamide] showed an IC50 of 2.2 µM.
